Test results reported in PubChem BioAssay AID248 (DTP/NCI, 2004).
Toxic doses and inconclusive results are not listed. Cut-off read from the data, not from the text of the source: active = T/C of 150% or more; inactive = T/C below 125%.

System: L1210 leukemia ip in BDF1 mice, survival T/C
Experiment: NCI In Vivo Anticancer Drug Screen. Data for tumor model L1210 Leukemia (intraperitoneal) in B6D2F1 (BDF1) mice
Details: endpoint: mean survival time, higher = longer survival
In short: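 Tumor cells were implanted, animals were treated, and survival was followed. The result divides the treated measurement by the vehicle-control measurement.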

[1] = dose: 100.0 mg/kg/injection, schedule: Q01DX001 (ip), vehicle: saline
[2] = dose: 100.0 mg/kg/injection, schedule: Q04DX003 (ip), vehicle: saline
[3] = dose: 200.0 mg/kg/injection, schedule: Q01DX001 (ip), vehicle: saline
[4] = dose: 200.0 mg/kg/injection, schedule: Q04DX003 (ip), vehicle: saline
[5] = dose: 400.0 mg/kg/injection, schedule: Q01DX001 (ip), vehicle: saline
[6] = dose: 50.0 mg/kg/injection, schedule: Q01DX009 (ip), vehicle: Klucel (hydroxypropylcellulose) (HPC)
[7] = dose: 100.0 mg/kg/injection, schedule: Q01DX009 (ip), vehicle: Klucel (hydroxypropylcellulose) (HPC)
[8] = dose: 200.0 mg/kg/injection, schedule: Q01DX009 (ip), vehicle: Klucel (hydroxypropylcellulose) (HPC)
[9] = dose: 400.0 mg/kg/injection, schedule: Q04DX003 (ip), vehicle: saline
[10] = dose: 100.0 mg/kg/injection, schedule: Q04DX003 (ip), vehicle: Klucel (hydroxypropylcellulose) (HPC)
[11] = dose: 200.0 mg/kg/injection, schedule: Q04DX003 (ip), vehicle: Klucel (hydroxypropylcellulose) (HPC)
[12] = dose: 400.0 mg/kg/injection, schedule: Q04DX003 (ip), vehicle: Klucel (hydroxypropylcellulose) (HPC)

Measured: T/C

C[C@]12CC[C@@H]3c4ccc(OC(=O)Cc5ccc(N(CCCl)CCCl)cc5)cc4CC[C@H]3[C@@H]1CC[C@@H]2OC(=O)Cc1ccc(N(CCCl)CCCl)cc1
inactive: dose: 100.0 mg/kg/injection, schedule: Q01DX001 (sc), vehicle: steriod suspending solution 97 % of control | dose: 200.0 mg/kg/injection, schedule: Q01DX001 (sc), vehicle: steriod suspending solution 102 % of control | dose: 400.0 mg/kg/injection, schedule: Q01DX001 (sc), vehicle: steriod suspending solution 102 % of control

COC1OC(CO)C(NC(N)=O)C1O (stereo not drawn)
inactive: dose: 100.0 mg/kg/injection, schedule: Q04DX002 (ip), vehicle: Klucel (hydroxypropylcellulose) (HPC) 105 % of control | dose: 200.0 mg/kg/injection, schedule: Q04DX002 (ip), vehicle: Klucel (hydroxypropylcellulose) (HPC) 105 % of control | dose: 400.0 mg/kg/injection, schedule: Q04DX002 (ip), vehicle: Klucel (hydroxypropylcellulose) (HPC) 111 % of control

Cc1ccc(-c2ccns2)cc1
inactive: dose: 50.0 mg/kg/injection, schedule: Q04DX003 (ip), vehicle: saline 105 % of control | [1] 100 % of control | [2] 108 % of control | [3] 104 % of control | [4] 103 % of control | [5] 104 % of control

O/N=C(/C=C(/C(=C/C(=N/O)c1ccccc1)c1ccccc1)c1ccccc1)c1ccccc1
inactive: [6] 102 % of control | [7] 94 % of control | [8] 87 % of control

CN(C)C(=S)Oc1ccc([N+](=O)[O-])cc1Cl
inactive: [7] 103 % of control | [8] 95 % of control | dose: 400.0 mg/kg/injection, schedule: Q01DX009 (ip), vehicle: Klucel (hydroxypropylcellulose) (HPC) 100 % of control

CCOC(=O)C(CCC1=NC(C)(C)CC(C)O1)C(=O)OCC (stereo not drawn)
inactive: dose: 100.0 mg/kg/injection, schedule: Q04DX003 (ip), vehicle: saline with Tween-80 94 % of control | dose: 200.0 mg/kg/injection, schedule: Q04DX003 (ip), vehicle: saline with Tween-80 101 % of control | dose: 400.0 mg/kg/injection, schedule: Q04DX003 (ip), vehicle: saline with Tween-80 94 % of control

CN(C)N1C(=O)CC2(CCC(C(C)(C)C)CC2)CC1=O
inactive: dose: 50.0 mg/kg/injection, schedule: Q01DX001 (ip), vehicle: carboxymethylcellulose (CMC) 109 % of control | dose: 100.0 mg/kg/injection, schedule: Q01DX001 (ip), vehicle: carboxymethylcellulose (CMC) 95 % of control | dose: 200.0 mg/kg/injection, schedule: Q01DX001 (ip), vehicle: carboxymethylcellulose (CMC) 104 % of control | dose: 400.0 mg/kg/injection, schedule: Q01DX001 (ip), vehicle: carboxymethylcellulose (CMC) 104 % of control

Cc1cc(CC(=O)c2ccccc2)[nH]c(=O)c1
inactive: [1] 103 % of control | [3] 101 % of control | [5] 101 % of control

CCN(CC)CC(=O)NCC(CCCCN1CCCC1)(c1cccc2ccccc12)C(C)C (stereo not drawn)
inactive: dose: 6.25 mg/kg/injection, schedule: Q04DX003 (ip), vehicle: saline 104 % of control | dose: 12.5 mg/kg/injection, schedule: Q04DX003 (ip), vehicle: saline 110 % of control | dose: 25.0 mg/kg/injection, schedule: Q04DX003 (ip), vehicle: saline 93 % of control

O=C(CCCC(=O)N/N=C/c1cccc2ccccc12)N/N=C/c1cccc2ccccc12
inactive: dose: 50.0 mg/kg/injection, schedule: Q01DX001 (ip), vehicle: other 93 % of control | dose: 100.0 mg/kg/injection, schedule: Q01DX001 (ip), vehicle: other 91 % of control | dose: 200.0 mg/kg/injection, schedule: Q01DX001 (ip), vehicle: other 91 % of control | dose: 400.0 mg/kg/injection, schedule: Q01DX001 (ip), vehicle: other 87 % of control

Nc1ccccc1O
inactive: dose: 12.5 mg/kg/injection, schedule: Q04DX003 (ip), vehicle: Klucel (hydroxypropylcellulose) (HPC) 100 % of control | dose: 25.0 mg/kg/injection, schedule: Q04DX003 (ip), vehicle: Klucel (hydroxypropylcellulose) (HPC) 100 % of control | dose: 50.0 mg/kg/injection, schedule: Q04DX003 (ip), vehicle: Klucel (hydroxypropylcellulose) (HPC) 92 % of control | dose: 100.0 mg/kg/injection, schedule: Q01DX009 (ip), vehicle: saline 110 % of control | dose: 200.0 mg/kg/injection, schedule: Q01DX009 (ip), vehicle: saline 105 % of control | dose: 400.0 mg/kg/injection, schedule: Q01DX009 (ip), vehicle: saline 108 % of control | dose: 600.0 mg/kg/injection, schedule: Q01DX009 (ip), vehicle: saline 92 % of control

CCOCCOCCC(=O)OC
inactive: dose: 62.5 mg/kg/injection, schedule: Q01DX001 (ip), vehicle: Klucel (hydroxypropylcellulose) (HPC) 95 % of control | dose: 125.0 mg/kg/injection, schedule: Q01DX001 (ip), vehicle: Klucel (hydroxypropylcellulose) (HPC) 89 % of control | dose: 250.0 mg/kg/injection, schedule: Q01DX001 (ip), vehicle: Klucel (hydroxypropylcellulose) (HPC) 113 % of control

BrCC12CCC1(CBr)COC2 (stereo not drawn)
inactive: [1] 99 % of control | [3] 103 % of control | [5] 101 % of control

COC(=O)CCC(NC(=O)C1CSC(C)(C)N1C=O)C(=O)OC (stereo not drawn)
inactive: [2] 104 % of control | [4] 101 % of control | [9] 101 % of control

O=S(=O)(F)c1cc(Cl)c(S)c(Cl)c1
inactive: [7] 100 % of control

Cc1noc(/N=C(/C(=N/c2onc(C)c2C)c2ccccc2)c2ccccc2)c1C
inactive: [10] 97 % of control | [11] 103 % of control | [12] 97 % of control

CCOC(=O)CNC(=O)Nc1ccc(C(=O)O)cc1
inactive: dose: 100.0 mg/kg/injection, schedule: Q01DX009 (ip), vehicle: saline with Tween-80 93 % of control | dose: 200.0 mg/kg/injection, schedule: Q01DX009 (ip), vehicle: saline with Tween-80 100 % of control

O=NN(c1ccccc1)c1ccc2ccccc2c1
inactive: [10] 105 % of control | [11] 110 % of control | [12] 110 % of control

C=C(CCCCC)C(=O)/C=C/c1ccc(Cl)cc1
inactive: [6] 103 % of control | [7] 97 % of control | [10] 102 % of control | [8] 95 % of control | [11] 100 % of control | [12] 103 % of control

CCC[Si](C)(C)CCC
inactive: [1] 100 % of control | [3] 98 % of control | [5] 100 % of control

C/C(=C\c1ccc2ccccc2c1)[N+](=O)[O-]
inactive: dose: 75.0 mg/kg/injection, schedule: Q01DX001 (ip), vehicle: saline 108 % of control | dose: 150.0 mg/kg/injection, schedule: Q01DX001 (ip), vehicle: saline 100 % of control | dose: 300.0 mg/kg/injection, schedule: Q01DX001 (ip), vehicle: saline 105 % of control

CSc1ncc2c(=O)n(C)[nH]c2n1
inactive: dose: 100.0 mg/kg/injection, schedule: Q01DX001 (ip), vehicle: Klucel (hydroxypropylcellulose) (HPC) 93 % of control | dose: 200.0 mg/kg/injection, schedule: Q01DX001 (ip), vehicle: Klucel (hydroxypropylcellulose) (HPC) 92 % of control | dose: 400.0 mg/kg/injection, schedule: Q01DX001 (ip), vehicle: Klucel (hydroxypropylcellulose) (HPC) 90 % of control

O=C1C(n2ccc(=O)n(Cc3ccccc3)c2=O)CCN1CCO (stereo not drawn)
inactive: [2] 96 % of control | [4] 119 % of control | [9] 102 % of control
